Assay results from PMC7518156 (PeerJ, 2020).
Where two headings read alike, the source gives them in different places.

Assay: Pharmacokinetics of ERL and GEF in Wistar rats after four weeks consumption of water or flavoured water (plasma, UPLC-MS/MS, non-compartmental analysis)
Type: in vivo
Settings: for AUC(0-t): read-out: AUC0-48; for half-life: read-out: t½ (converted)
Procedure: Fifty healthy male Wistar rats weighing 250 ± 30 g were obtained from the animal house, College of Pharmacy, King Saud University, Riyadh, Saudi Arabia. Rats were randomly divided into ten cages (n = 5). All individualized ventilated cages (IVC) type IV used in this study were of 20″L × 11″W × 9″ in dimension capable of hosting 4–5 rats. Cages density, bedding, and sanitation frequency was similar in all cages. Cages were housed at room temperature (25 °C) and at an average relative humidity of 50%. Daily observation of all rats was required to ensure that all animals maintained good health. All animal experiments strictly followed the guidelines of the Ethical Committee for Performing Studies on Animals, King Saud University, Riyadh, Saudi Arabia, protocol number KSU-SE-19-13.
Four types of FW, (Aquafina®, a product of Pepsi-Cola®, Saudi Industrial Projects Company, Jeddah, Saudi Arabia) with different flavours, specifically berry (group II), peach (group III), lime (group IV), and pineapple FW (group V) were used. Other components found in FW used in this study include water, preservatives (sodium phosphate, potassium sorbet, sodium benzoate), acidifiers (citric acid, maleic acid), sweeteners (aspartame, potassium acesulfame, allose), acidity regulator (sodium citrate), and antioxidant agent (calcium disodium EDTA). […] The parallel design was used in this study to avoid animals’ physiological changes that could occur in the cross-over design, possibly affecting PK profiles of drug substances. All animals involved in the study were deprived from food, but not water/FW, for at least 12 h before drug administration. […] Drugs were administered to the rats between 7:00 am and 8:00 am. Rats were separately weighed from day one of water/FW consumption prior to drug administration for accurate dose calculation (Fig. S1). Blood samples (0.3 mL) were collected from each rat immediately prior to dosing (0 time) and at predetermined time points (0.5, 1, 2, 3, 5, 24, and 48 h) post drug administration. Blood samples were withdrawn and processed as described previously ([Maher et al., 2017]; [Maher, Alzoman & Shehata, 2016]; [Maher, Alzoman & Shehata, 2018]). Specifically, blood samples were withdrawn from the retro-orbital sinus into a series of heparinized tubes. Plasma was separated from collected blood samples by centrifugation at 4,500 rpm for 30 min where the centrifuge was maintained at 4 °C, and then stored at −20 °C until the day of analysis. […] A mixture of acetonitrile: water (80: 20, v/v), with 0.1% formic acid was used as a mobile phase at a flow rate of 0.2 mL/min ([Maher, Alzoman & Shehata, 2016]).
Cmax and tmax were obtained from the corresponding plasma concentration–time curve (Figs. 1A and 1B). […] The area under the plasma concentration–time curve from time 0 to the last sampling time t, 48 h (AUC0–t) was calculated using the trapezoidal rule. […] AUC0–∞ was also derived by summing up AUC0–t andthe area obtained by extrapolation from time t to ∞. The latter area was calculated from the division of the last measured concentration (Clast) by λz.
Results were presented as mean ± SD. PK parameters of all treated groups following the consumption of FW were compared with control (rats having free access to water), using one-way ANOVA and Bonferroni’s multiple comparisons test. Statistical significance was obtained with p-values ≤ 0.05.

[1] = male, Wistar, rat, plasma, oral, 20 mg/kg, PKSolver sheet, dose 20 mg/kg, +Berry, read-out: Conc
[2] = male, Wistar, rat, plasma, oral, 20 mg/kg, PKSolver sheet, dose 20 mg/kg, +Lime, read-out: Conc
[3] = male, Wistar, rat, plasma, oral, 20 mg/kg, PKSolver sheet, dose 20 mg/kg, +Peach, read-out: Conc
[4] = male, Wistar, rat, plasma, oral, 20 mg/kg, PKSolver sheet, dose 20 mg/kg, +Pineapple, read-out: Conc
[5] = male, Wistar, rat, plasma, oral, 20 mg/kg, PKSolver sheet, dose 20 mg/kg, drug alone (water), read-out: Conc
[6] = male, Wistar, rat, plasma, po, 20 mg/kg, rats, 20 mg/kg oral, +Berry FW, average, read-out: Conc*10 (ng/mL plasma)
[7] = male, Wistar, rat, plasma, po, 20 mg/kg, rats, 20 mg/kg oral, +Lime FW, average, read-out: Conc*10 (ng/mL plasma)
[8] = male, Wistar, rat, plasma, po, 20 mg/kg, rats, 20 mg/kg oral, +Peach FW, average, read-out: Conc*10 (ng/mL plasma)
[9] = male, Wistar, rat, plasma, po, 20 mg/kg, rats, 20 mg/kg oral, +Pineapple FW, average, read-out: Conc*10 (ng/mL plasma)
[10] = male, Wistar, rat, plasma, po, 20 mg/kg, rats, 20 mg/kg oral, drug alone (water), average, read-out: Conc*10 (ng/mL plasma)
[11] = male, Wistar, rat, plasma, po, 20 mg/kg, rats, 20 mg/kg oral, four weeks berry FW, n = 5, mean (SD)
[12] = male, Wistar, rat, plasma, po, 20 mg/kg, rats, 20 mg/kg oral, four weeks peach FW, n = 5, mean (SD)
[13] = male, Wistar, rat, plasma, po, 20 mg/kg, rats, 20 mg/kg oral, four weeks pineapple FW, n = 5, mean (SD)
[14] = male, Wistar, rat, plasma, po, 20 mg/kg, rats, 20 mg/kg oral, water (control), n = 5, mean (SD)
[15] = male, Wistar, rat, plasma, po, 20 mg/kg, raw data sheet, from average profile, +Berry FW
[16] = male, Wistar, rat, plasma, po, 20 mg/kg, raw data sheet, from average profile, +Lime FW
[17] = male, Wistar, rat, plasma, po, 20 mg/kg, raw data sheet, from average profile, +Peach FW
[18] = male, Wistar, rat, plasma, po, 20 mg/kg, raw data sheet, from average profile, +Pineapple FW
[19] = male, Wistar, rat, plasma, po, 20 mg/kg, raw data sheet, from average profile, drug alone (water)
[20] = rats, lime FW relative to control (water)
[21] = rats, pineapple FW relative to control (water)

SMILES: COc1cc2ncnc(Nc3ccc(F)c(Cl)c3)c2cc1OCCCN1CCOCC1 [GEF, Gefitinib]
- concentration at 0 h [1]: 39.1 ng/mL
- concentration at 0.5 h [1]: 99.7 ng/mL
- concentration at 1 h [1]: 152 ng/mL
- concentration at 2 h [1]: 322 ng/mL
- concentration at 3 h [1]: 191 ng/mL
- concentration at 5 h [1]: 150 ng/mL
- concentration at 24 h [1]: 81.4 ng/mL
- concentration at 48 h [1]: 30.2 ng/mL
- concentration at 0 h [2]: 157 ng/mL
- concentration at 0.5 h [2]: 387 ng/mL
- concentration at 1 h [2]: 483 ng/mL
- concentration at 2 h [2]: 574 ng/mL
- concentration at 3 h [2]: 643 ng/mL
- concentration at 5 h [2]: 490 ng/mL
- concentration at 24 h [2]: 216 ng/mL
- concentration at 48 h [2]: 95.2 ng/mL
- concentration at 0 h [3]: 44.5 ng/mL
- concentration at 0.5 h [3]: 135 ng/mL
- concentration at 1 h [3]: 202 ng/mL
- concentration at 2 h [3]: 365 ng/mL
- concentration at 3 h [3]: 213 ng/mL
- concentration at 5 h [3]: 161 ng/mL
- concentration at 24 h [3]: 85.3 ng/mL
- concentration at 48 h [3]: 25.2 ng/mL
- Cmax (male, Wistar, rat, plasma, oral, 20 mg/kg, PKSolver sheet, dose 20 mg/kg, +Pineapple): 445 ng/mL
- Tmax (male, Wistar, rat, plasma, oral, 20 mg/kg, PKSolver sheet, dose 20 mg/kg, +Pineapple, read-out: Tmax): 2 h
- concentration at 0 h [4]: 75.5 ng/mL
- concentration at 0.5 h [4]: 227 ng/mL
- concentration at 1 h [4]: 302 ng/mL
- concentration at 2 h [4]: 445 ng/mL
- concentration at 3 h [4]: 259 ng/mL
- concentration at 5 h [4]: 210 ng/mL
- concentration at 24 h [4]: 152 ng/mL
- concentration at 48 h [4]: 40.2 ng/mL
- concentration at 0 h [5]: 34.5 ng/mL
- concentration at 0.5 h [5]: 142 ng/mL
- concentration at 1 h [5]: 220 ng/mL
- concentration at 2 h [5]: 402 ng/mL
- concentration at 3 h [5]: 169 ng/mL
- concentration at 5 h [5]: 148 ng/mL
- concentration at 24 h [5]: 69.8 ng/mL
- concentration at 48 h [5]: 29.2 ng/mL
- concentration at 0 h [6]: 39.1 ng/mL
- concentration at 0.5 h [6]: 99.7 ng/mL
- concentration at 1 h [6]: 152 ng/mL
- concentration at 2 h [6]: 322 ng/mL
- concentration at 3 h [6]: 191 ng/mL
- concentration at 5 h [6]: 150 ng/mL
- concentration at 24 h [6]: 81.4 ng/mL
- concentration at 48 h [6]: 30.2 ng/mL
- concentration at 0 h [7]: 157 ng/mL
- concentration at 0.5 h [7]: 387 ng/mL
- concentration at 1 h [7]: 483 ng/mL
- concentration at 2 h [7]: 574 ng/mL
- concentration at 3 h [7]: 643 ng/mL
- concentration at 5 h [7]: 490 ng/mL
- concentration at 24 h [7]: 216 ng/mL
- concentration at 48 h [7]: 95.2 ng/mL
- concentration at 0 h [8]: 44.5 ng/mL
- concentration at 0.5 h [8]: 135 ng/mL
- concentration at 1 h [8]: 202 ng/mL
- concentration at 2 h [8]: 365 ng/mL
- concentration at 3 h [8]: 213 ng/mL
- concentration at 5 h [8]: 161 ng/mL
- concentration at 24 h [8]: 85.3 ng/mL
- concentration at 48 h [8]: 25.2 ng/mL
- concentration at 0.5 h [9]: 227 ng/mL
- concentration at 1 h [9]: 302 ng/mL
- concentration at 2 h [9]: 445 ng/mL
- concentration at 3 h [9]: 259 ng/mL
- concentration at 5 h [9]: 210 ng/mL
- concentration at 24 h [9]: 152 ng/mL
- concentration at 48 h [9]: 40.2 ng/mL
- concentration at 0 h [10]: 34.5 ng/mL
- concentration at 0.5 h [10]: 142 ng/mL
- concentration at 1 h [10]: 220 ng/mL
- concentration at 2 h [10]: 402 ng/mL
- concentration at 3 h [10]: 169 ng/mL
- concentration at 5 h [10]: 148 ng/mL
- concentration at 24 h [10]: 69.8 ng/mL
- concentration at 48 h [10]: 29.2 ng/mL
- AUC(0-inf) [11]: 5230 ng·h/mL
- CL/F [11]: 74.7 mL/min/kg
- AUC(0-t) [11]: 4460 ng·h/mL
- Tmax (male, Wistar, rat, plasma, po, 20 mg/kg, rats, 20 mg/kg oral, four weeks berry FW, n = 5, mean (SD), read-out: tmax): 2.33 h
- half-life [11]: 17.7 h
- half-life (male, Wistar, rat, plasma, po, 20 mg/kg, rats, 20 mg/kg oral, four weeks lime FW, n = 5, mean (SD)): 16.9 h
- AUC(0-inf) [12]: 5300 ng·h/mL
- CL/F [12]: 70.3 mL/min/kg
- Cmax [12]: 365 ng/mL
- AUC(0-t) [12]: 4740 ng·h/mL
- Tmax (male, Wistar, rat, plasma, po, 20 mg/kg, rats, 20 mg/kg oral, four weeks peach FW, n = 5, mean (SD), read-out: tmax): 2 h
- half-life [12]: 15.4 h
- Cmax [13]: 445 ng/mL
- Tmax (male, Wistar, rat, plasma, po, 20 mg/kg, rats, 20 mg/kg oral, four weeks pineapple FW, n = 5, mean (SD), read-out: tmax): 1.71 h
- half-life [13]: 17.8 h
- AUC(0-inf) [14]: 5060 ng·h/mL
- CL/F [14]: 77.3 mL/min/kg
- Cmax [14]: 406 ng/mL
- AUC(0-t) [14]: 4310 ng·h/mL
- Tmax (male, Wistar, rat, plasma, po, 20 mg/kg, rats, 20 mg/kg oral, water (control), n = 5, mean (SD), read-out: tmax): 2 h
- half-life [14]: 17.9 h
- AUC [15]: 5230 ng·h/mL
- Cmax [15]: 322 ng/mL
- Tmax (male, Wistar, rat, plasma, po, 20 mg/kg, raw data sheet, from average profile, +Berry FW, read-out: tmax): 2 h
- half-life [15]: 17.7 h
- AUC [16]: 15400 ng·h/mL
- Cmax [16]: 643 ng/mL
- half-life [16]: 16.9 h
- AUC [17]: 5300 ng·h/mL
- Cmax [17]: 365 ng/mL
- Tmax (male, Wistar, rat, plasma, po, 20 mg/kg, raw data sheet, from average profile, +Peach FW, read-out: tmax): 2 h
- half-life [17]: 15.4 h
- AUC [18]: 8170 ng·h/mL
- Cmax [18]: 445 ng/mL
- Tmax (male, Wistar, rat, plasma, po, 20 mg/kg, raw data sheet, from average profile, +Pineapple FW, read-out: tmax): 2 h
- half-life [18]: 17.8 h
- AUC [19]: 5060 ng·h/mL
- Cmax [19]: 402 ng/mL
- Tmax (male, Wistar, rat, plasma, po, 20 mg/kg, raw data sheet, from average profile, drug alone (water), read-out: tmax): 2 h
- half-life [19]: 17.9 h
- change in t1/2 (rats, all tested FW relative to control (water)): None of the tested FW caused a significant change
- effect on exposure (AUC0–48) (rats, berry FW relative to control (water)): no effect was found
- decrease in apparent oral clearance (CL/F) [20]: 67%
- increase in AUC0–48 [20]: 203%
- increase in AUC0–∞ [20]: 203%
- increase in Cmax [20]: 58%
- increase in tmax [20]: ~50%
- decrease in apparent oral clearance (CL/F) [21]: ~40%
- increase in AUC0–48 [21]: ~65%
- increase in AUC0–∞ [21]: ~61%
- Tmax (raw data sheet, from average profile, +Lime FW): 3 h
- % change FOR C MAX (raw data sheet, +Berry FW vs drug alone): -19% FOR C MAX
- % change FOR C MAX (raw data sheet, +Lime FW vs drug alone): 60% FOR C MAX
- % change FOR C MAX (raw data sheet, +Peach FW vs drug alone): -9% FOR C MAX
- % change FOR C MAX (raw data sheet, +Pineapple FW vs drug alone): 11% FOR C MAX
